# Data from patent US20260327211A1, “MODULATORS OF A POTASSIUM CHANNEL AND OF TRPV1 CHANNEL AND USES THEREOF” (Bsense Bio Therapeutics Ltd., priority 2023, published 2026).
# Read-outs that look alike come from different tables or passages of the source.
# Experiments:
# [1] = Ligand-lipophilicity efficiency (LLE); type: physicochemical
# From the text: Ligand-lipophilicity efficiency (LLE) is a parameter used in drug design and drug discovery to evaluate the quality of research compounds, linking potency and lipophilicity.
# To follow LLE values, the following equation was used: […]
# Suitable LLE value are typically higher than 3 or higher than 5.
# Rat hepatocyte stability = type: in vitro ADME; details: hepatocytes; for half-life: read-out: Hepatocytes (rat) T1/2
# [2] = Human hepatocyte stability; type: in vitro ADME; details: human hepatocytes; for half-life: read-out: Hepatocytes (human) T1/2
# CYP2D6 = molecular target: T1, CYP2D6 (Homo sapiens, UniProt P10635); experiment: CYP inhibition / time-dependent inhibition, CYP2D6_Dextromethorphan; type: in vitro ADME; details: role: inhibitor
# T1 construct: pre-incubation of the human liver microsomes with the test compound; tissue Corning; host or cells: human liver microsomes
# Experimental: (§1) The time-dependent inactivation potency of the test compound to CYP enzymatic activities was assessed by the pre-incubation of the human liver microsomes with the test compound in the presence and absence of NADPH, followed by the incubation with the discrete marker substrates, as follows.
# (§2) Pre-incubation with human liver microsomes (HLMs): The TDI inactivation potency on CYP enzymatic activities was evaluated through pre-incubation with HLMs (Corning). A liver microsome mixture at a concentration of 0.1 mg/mL, and the test compound at 8 different concentrations (0, 0.05, 0.165, 0.5, 1.65, 5.0, 16.5, or 50.0 μM) was warmed at 37° C. for 10 minutes. Concurrently, a set of known time-dependent inactivators was also prepared in duplicate for comparison. Following this, NADPH (1.0 mM) was added to one group (Group 1), and an equal volume of potassium phosphate buffer to the second group (Group 2), marking the beginning of a 30-minute pre-incubation at 37° C.
# (§3) Incubation: After pre-incubation, the marker substrate, or marker substrate plus NADPH was added to the mixture, thereby initiating the incubation. The duration of the incubation was dependent on the type of CYP isoform being evaluated. For example, with the CYP3A isoform, the mixture was incubated over 3 minutes utilizing midazolam as the marker substrate (2.0 μM), verapamil as the standard inactivator (3.5 μM).
# (§4) Termination of Reaction: Following the incubation, ice-cooled acetonitrile containing the internal standard (IS) was added to halt the reactions. Metabolites generated from the marker substrates were then measured via LC-MS/MS, assessed based on peak area ratios of the analyte to IS.
# opioid delta receptor = molecular target: T2, opioid delta receptor (Homo sapiens, UniProt P41143); experiment: Functional selectivity panel, opioid delta receptor; type: biochemical
# T2 construct: Eurofins DiscoverX, USA
# Experimental: (§5) A broad panel of 78 recombinant targets was tested for pharmacologic activity in vitro through a variety of functional assays (Eurofins DiscoverX, USA), as part of the National Institute of Neurological Disorders and Stroke (NINDS) Preclinical Screening Platform for Pain (PSPP) program. The biological targets for the in vitro profiling have been selected based on avoiding opioid receptor stimulation and targets known to be associated with adverse events or targeted by drugs of abuse. […] For each test, a reference compound was evaluated at the target of interest as a positive control.
# opioid mu receptor = molecular target: T3, opioid mu receptor (Homo sapiens, UniProt P35372); experiment: Functional selectivity panel, opioid mu receptor; type: biochemical
# T3 construct: Eurofins DiscoverX, USA (assay provider)
# Experimental: as §5
# rats [3] = experiment: Hot plate (53° C.); type: in vivo, rat
# Experimental: Hot Plate: Animals were placed on hot plate analgesia meter (IITC Life Science Inc., CA, USA) set to 53±1° C., and the time until the first escape response was observed was recorded. A response was considered when the animals lifted or licked their leg or performed kicking behavior.
# CYP1A2 = molecular target: T4, CYP1A2 (Homo sapiens, UniProt P05177); experiment: CYP inhibition / time-dependent inhibition, CYP1A2_Phenacetin; type: in vitro ADME; details: role: inhibitor
# T4 construct: pre-incubation of the human liver microsomes with the test compound; tissue Corning; host or cells: human liver microsomes
# T4 sequence (P05177 1-516): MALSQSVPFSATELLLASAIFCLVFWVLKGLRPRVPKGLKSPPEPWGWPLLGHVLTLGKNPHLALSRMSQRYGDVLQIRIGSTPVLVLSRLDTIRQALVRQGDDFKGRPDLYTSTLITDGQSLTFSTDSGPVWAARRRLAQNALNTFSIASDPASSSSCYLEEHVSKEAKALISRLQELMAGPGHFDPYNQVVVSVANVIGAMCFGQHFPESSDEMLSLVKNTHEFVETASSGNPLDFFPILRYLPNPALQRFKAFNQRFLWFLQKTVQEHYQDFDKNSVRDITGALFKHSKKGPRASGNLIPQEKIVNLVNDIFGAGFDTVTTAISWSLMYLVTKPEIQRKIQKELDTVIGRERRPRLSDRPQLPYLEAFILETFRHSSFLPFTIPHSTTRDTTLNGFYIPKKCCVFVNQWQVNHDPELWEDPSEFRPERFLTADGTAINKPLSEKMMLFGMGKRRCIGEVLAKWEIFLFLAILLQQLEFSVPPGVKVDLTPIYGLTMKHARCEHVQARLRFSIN
# Experimental: as §1, §2, §3, §4
# Kv7.1 = molecular target: T5, Kv7.1 (Homo sapiens, UniProt P51787); experiment: Kv7.1; type: biochemical
# T5 construct: Eurofins DiscoverX, USA (assay provider)
# Experimental: as §5
# rats [4] = experiment: Accelerating rotarod; type: in vivo, rat
# Experimental: Rotarod: There were two days of training in which rats were trained at a constant speed of 5 RPM for 180 seconds. After each fall the rats were placed back on the rotating rod until 180 seconds were reached. Then, the actual test started on study day 0 using the accelerating rotarod methodology. Animals were placed on the rod, which was accelerated 5-40 RPM over 180 seconds. Acceleration rate (0.19 RPM/second) was calculated from delta velocity (v2−v1) divided by delta time (t2−t1). The time to the first fall of each animal was documented, in addition to the distance and speed.
# T1 sequence (P10635 whole entry): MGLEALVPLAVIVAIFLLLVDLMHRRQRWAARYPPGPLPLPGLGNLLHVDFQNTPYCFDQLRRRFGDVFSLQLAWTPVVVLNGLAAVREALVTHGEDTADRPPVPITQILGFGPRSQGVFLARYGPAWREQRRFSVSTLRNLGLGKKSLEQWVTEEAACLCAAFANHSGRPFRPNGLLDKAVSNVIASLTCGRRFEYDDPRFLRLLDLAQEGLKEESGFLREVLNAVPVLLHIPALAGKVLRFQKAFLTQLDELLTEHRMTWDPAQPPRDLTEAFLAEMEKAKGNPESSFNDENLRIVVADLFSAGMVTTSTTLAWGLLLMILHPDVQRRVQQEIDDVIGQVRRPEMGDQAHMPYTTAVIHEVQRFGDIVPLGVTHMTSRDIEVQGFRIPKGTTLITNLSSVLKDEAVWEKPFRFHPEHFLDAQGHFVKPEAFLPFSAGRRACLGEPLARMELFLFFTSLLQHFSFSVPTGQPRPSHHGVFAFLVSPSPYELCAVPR
# T5 sequence (P51787 whole entry): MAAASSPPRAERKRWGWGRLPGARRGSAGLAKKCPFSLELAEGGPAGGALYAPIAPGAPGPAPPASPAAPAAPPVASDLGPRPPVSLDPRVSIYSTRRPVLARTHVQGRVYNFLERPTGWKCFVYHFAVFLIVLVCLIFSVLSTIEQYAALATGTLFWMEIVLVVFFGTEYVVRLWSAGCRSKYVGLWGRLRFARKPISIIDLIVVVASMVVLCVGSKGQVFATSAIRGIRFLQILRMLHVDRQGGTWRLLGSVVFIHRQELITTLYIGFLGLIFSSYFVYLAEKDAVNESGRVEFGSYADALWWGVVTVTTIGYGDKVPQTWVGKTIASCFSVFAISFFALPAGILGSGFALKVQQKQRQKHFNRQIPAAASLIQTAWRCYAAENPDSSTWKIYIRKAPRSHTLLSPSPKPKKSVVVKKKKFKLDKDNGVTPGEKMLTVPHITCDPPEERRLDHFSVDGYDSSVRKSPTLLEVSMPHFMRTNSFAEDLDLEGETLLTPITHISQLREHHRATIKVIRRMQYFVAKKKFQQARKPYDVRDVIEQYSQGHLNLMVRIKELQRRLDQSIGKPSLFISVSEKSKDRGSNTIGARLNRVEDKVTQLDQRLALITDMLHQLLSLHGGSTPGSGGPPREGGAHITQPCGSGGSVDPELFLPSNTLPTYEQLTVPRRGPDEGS
# T3 sequence (P35372 whole entry): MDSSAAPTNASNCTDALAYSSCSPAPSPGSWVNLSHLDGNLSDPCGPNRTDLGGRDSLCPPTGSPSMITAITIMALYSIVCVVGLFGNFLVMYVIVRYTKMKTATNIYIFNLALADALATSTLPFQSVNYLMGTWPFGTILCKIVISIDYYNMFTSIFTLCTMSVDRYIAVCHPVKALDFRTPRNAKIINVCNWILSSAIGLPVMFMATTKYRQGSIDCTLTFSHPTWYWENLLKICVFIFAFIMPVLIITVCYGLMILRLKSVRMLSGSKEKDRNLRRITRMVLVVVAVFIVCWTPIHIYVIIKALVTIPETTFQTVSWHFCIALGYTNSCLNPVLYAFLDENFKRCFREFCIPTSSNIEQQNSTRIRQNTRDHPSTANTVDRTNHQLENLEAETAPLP
# T2 sequence (P41143 whole entry): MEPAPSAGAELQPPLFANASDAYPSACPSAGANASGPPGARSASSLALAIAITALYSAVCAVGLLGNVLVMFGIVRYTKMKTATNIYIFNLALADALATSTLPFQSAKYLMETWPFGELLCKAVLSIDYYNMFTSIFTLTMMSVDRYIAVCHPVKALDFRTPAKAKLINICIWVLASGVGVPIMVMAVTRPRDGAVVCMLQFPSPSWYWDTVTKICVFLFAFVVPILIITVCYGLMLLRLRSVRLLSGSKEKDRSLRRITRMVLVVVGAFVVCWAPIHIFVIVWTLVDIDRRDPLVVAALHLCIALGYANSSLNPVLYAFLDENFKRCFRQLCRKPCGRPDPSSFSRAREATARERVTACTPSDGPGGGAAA
smiles,measurement,setting,value
Cc1cn(-c2ccc(F)c(CC(=O)NCC(C)(C)O)c2)c2c(Cl)cc(Cl)cc12 [Compound 421],LLE,[1],2.1
O=C(Cc1cc(-n2cc(Cl)c3cc(Cl)cc(Cl)c32)ccc1F)NCCO [Compound 627],CLint scaled,Rat hepatocyte stability,514 mL/min/kg
same,half-life,Rat hepatocyte stability,12.6 min
same,CLint scaled,[2],190 mL/min/kg
same,half-life,[2],20.3 min
O=C(Cc1cncc(-n2cc(Cl)c3cc(Cl)cc(Cl)c32)c1)N[C@@H]1COC[C@H]1O [Compound 661],CLint scaled,Rat hepatocyte stability,1140 mL/min/kg
same,half-life,Rat hepatocyte stability,5.7 min
same,IC50,"CYP2D6; (+)NADPH pre-incubation, substrate dextromethorphan, read-out: IC50 (+)NADPH CYP2D6_Dextromethorphan",31.7 µM
same,IC50,"CYP2D6; (−)NADPH pre-incubation, substrate dextromethorphan, read-out: IC50 (−)NADPH CYP2D6_Dextromethorphan",28.5 µM
same,IC50,opioid delta receptor,10 µM
same,CLint scaled,[2],73.8 mL/min/kg
same,half-life,[2],52.2 min
same,IC50,opioid mu receptor,6 µM
same,Hot plate escape latency,"rats [3]; 20 and 50 mg/kg PO, 2-10 hours post-dose",no significant effect on escape latency
same,IC50,"CYP1A2; (+)NADPH pre-incubation, substrate phenacetin, read-out: IC50 (+)NADPH CYP1A2_Phenacetin",> 50 µM
same,IC50,"CYP1A2; (−)NADPH pre-incubation, substrate phenacetin, read-out: IC50 (−)NADPH CYP1A2_Phenacetin",> 50 µM
same,Kv7.1 activity,Kv7.1; up to solubility limit,no measurable activity at any concentration tested
same,Rotarod performance,"rats [4]; 20 and 50 mg/kg PO, 1 and 4 hour post-dose",did not affect rotarod performance
O=C(Cc1nccc(-n2cc(Cl)c3cc(Cl)cc(Cl)c32)n1)NC1COCC1O (stereo not shown) [Compound 760],IC50,"CYP2D6; Table 9, read-out: CYP inhibition IC50 CYP2D6",> 50 µM
same,Effect on Opioid-delta,opioid delta receptor; up to 10 micromolar,no effect
same,Effect on Opioid mu,opioid mu receptor; up to 10 micromolar,no effect
same,Hot-plate response,rats [3]; up to 300 mg/kg oral,displayed safety potential at up to 300 mg/kg oral dosing
same,IC50,"CYP1A2; Table 9, read-out: CYP inhibition IC50 CYP1A2",> 50 µM
same,Effect on Kv7.1,Kv7.1; up to 10 micromolar,no effect
same,Rotarod,rats [4]; up to 300 mg/kg oral,displayed safety potential at up to 300 mg/kg oral dosing
"CC(C)c1cc(Cl)cc(Cl)c1Nc1ccc(F)c(CC(=O)NCC(C)(C)O)c1 [NH91, reference compound]",LLE,[1],1.6
same,LLE Kv 7.2/7.3,[1],0.8
same,LLE TRPV1,[1],−0.35
